Test results: US20120064008A1, “COMPOSITIONS FOR THE TREATMENT OF METASTATIC CANCER AND METHODS OF USE THEREOF” (priority 2009, published 2012)
“Also recorded” adds a separate entry of the source.

Legend:
PC-3MLN4 cells [1] = assay: Normalized mitotic index (histone H3 phospho-Serine-28), PC-3MLN4; format: cell-based; details: Homo sapiens, read-out: Normalized mitotic index PC-3MLN4, at 1 μM; normalized against vehicle-treated cells
Excerpt: The mitotic index for each agent was normalized against those obtained from vehicle-treated cells, and compared with the activity of paclitaxel, a known inducer of mitotic arrest.

PC-3MLN4 cells [2] = assay: Experimental bone metastasis model, PC-3MLN4 cells expressing luciferase, intraosseous; format: in vivo, immunocompromised mice; details: 100 mg/kg for two weeks
Procedure: (§1) Using the metastatic prostate cancer PC-3MLN4 cells that expressed luciferase, the anti-tumor effects of benzimidazoles in a model of experimental bone metastasis were investigated. Cells were inoculated directly into a single tibia of immunocompromised mice via intraosseous injection. When bone lesions were confirmed to be growing via bioluminescent imaging, mice were randomized and treated with vehicle or with 100 mg/kg albendazole for two weeks. […] There was a significant difference in average luciferase signal between the two groups over the course of treatment (P<0.05).
At the end of study, the anatomical and radiographic characteristics of the bone lesions were evaluated with X-ray and micro-computerized tomography (CT) imaging.
as §1, with “(P<0.05) (see FIG. 13).” for “(P<0.05).”
At the end of study, the anatomical and radiographical characteristics of the bone lesions were evaluated with X-ray and micro-computerized tomography (CT) imaging.

DU-145TR cells = assay: Gene expression profiling, DU-145 and DU-145TR; format: cell-based, human; details: DU-145TR vs DU-145, 2-fold cut off
Excerpt: In order to dissect the mechanisms underlying the anti-tumor effects of benzimidazoles in these cells, gene expression profiling was done comparing albendazole treated DU-145 and DU-145TR cells.

AT6.1 lung metastases = assay: Ki-67 and caspase-3 staining of lung tumor sections; format: in vivo, mice; details: 50 mg/kg, combination carrier; FIG. 10
Procedure: To investigate whether benzimidazoles treatment affects cell proliferation and apoptosis in vivo, immunohistochemical analysis of the cell proliferation marker, Ki-67 and of the apoptotic marker, activated caspase-3 was performed on mouse lung sections from each group.
Tumor cells in the lungs of rats treated with saline and 50 mg/kg fenbendazole (formulation in the combination carrier) were analyzed by Ki-67 and caspase-3 antibody staining. Tissues were collected and fixed in formalin before processed for paraffin embedding. Tissue sections were then processed for Ki-67 and caspase-3 antibody staining, using the protocol established at Dana Farber Cancer Institute/Harvard Cancer Center Research Pathology Core. At least five random 200× magnification images were photographed from each animal. Distinct and strong nuclear Ki67 staining of tumor cells were counted using Image J software (NIH, Bethesda, […].).

lung metastases = assay: Lung metastasis model, survival; format: in vivo, mice
Procedure: In the lung metastasis model, treatment was initiated 10 days after the animals were inoculated with tumor cells. At this time, the lungs were riddled with metastases. Formulations containing a benzimidazole were injected into the peritoneum three times per week. Half of the control mice died by day 27, only 17 days after the animals started receiving treatments. In contrast, half of the mice treated with fenbendazole were still alive on day 37 and one-third were still alive at day 45.

**Q.** Which fold induction at 1 µM (PC-3MLN4 cells [1]) does the source give for CCCSc1ccc2nc(NC(=O)OC)[nH]c2c1 [Albendazole, albendazole] here?
**A.** 1.8 to 2

**Q.** And the “tumor growth (luciferase signal) compared to vehicle” value (PC-3MLN4 cells [2])?
**A.** reduced tumor growth

**Q.** What about the “Ki-67 labeling index of bone lesions” value (PC-3MLN4 cells [2]; P<0.005) of the same molecule?
**A.** reduction

**Q.** And the “apoptotic index of bone lesions (activated caspase-3 staining)” value (PC-3MLN4 cells [2]; P<0.005)?
**A.** increase

**Q.** And the “bone integrity (X-ray and micro-CT imaging)” value (PC-3MLN4 cells [2]; end of study)?
**A.** bone integrity was maintained

**Q.** And the “expression of ER stress signaling genes (ATF-2, ATF-3, HERPUD1, CHOP, ANKRD1, GADD45alpha)” value (DU-145TR cells)?
**A.** differentially expressed

**Q.** With COC(=O)Nc1nc2ccc(Sc3ccccc3)cc2[nH]1 [Fenbendazole, fenbendazole] as the molecule, how does the “tumor cell proliferation (Ki67 staining) compared to control” value (AT6.1 lung metastases) read?
**A.** less proliferation of tumor cells; also recorded: marked reduction in tumor cell proliferation

**Q.** What about the “fraction of mice still alive at day 45” value (lung metastases; i.p. three times per week from day 10 after inoculation) of the same molecule?
**A.** one-third

**Q.** And the “day on which half of the mice were still alive” value (lung metastases; i.p. three times per week from day 10 after inoculation (half of control mice died by day 27))?
**A.** 37 days

**Q.** What about the “prolonging the survival times compared with taxol” value (lung metastases; mouse, in vivo) of the same molecule?
**A.** equivalent to taxol
